Values quoted from earlier work in patent publication US20110305778A1, “Chemically Stabilized Anti-Dandruff Compositions For Use In Personal Care Compositions” (priority 2010, published 2011).

Conditions: value in parenthesis after each coordinating compound; no method given

Compound | Log Zn Binding Constant
CC(=O)O [Acetic Acid] | 1.0
O=C(O)CCCCC(=O)O [Adipic Acid] | 2.6
N=C(N)NCCC[C@H](N)C(=O)O [Arginine] | 4.2
N[C@@H](CC(=O)O)C(=O)O [Aspartic Acid] | 5.9
OB(O)O [Boric Acid] | 0.9
O=C(O)O [Carbonic Acid] | 3.9
Cl [Chloride] | −0.3
O=C(O)CC(O)(CC(=O)O)C(=O)O [Citric Acid] | 4.8
N[C@@H](CS)C(=O)O [Cysteine] | 9.1
N[C@@H](CSSC[C@H](N)C(=O)O)C(=O)O [Cystine] | 6.7
O=C(O)CNCCNCC(=O)O [EDDA] | 11.1
O=C(O)C[C@H](NCCN[C@@H](CC(=O)O)C(=O)O)C(=O)O [EDDS] | 13.5
O=C(O)CN(CCN(CC(=O)O)CC(=O)O)CC(=O)O [EDTA] | 16.5
O=CO [Formic Acid] | 0.6
N[C@@H](CCC(=O)O)C(=O)O [Glutamic Acid] | 4.5
NCC(=O)O [Glycine] | 5.0
O=C(O)CO [Glycolic Acid] | 2.0
CC(O)C(=O)O (stereo not shown) [Lactic Acid] | 1.9
O=C(O)CC(O)C(=O)O (stereo not shown) [Malic Acid] | 2.9
O=C(O)CC(=O)O [Malonic Acid] | 2.9
CSCC[C@H](N)C(=O)O [Methionine] | 4.4
O=C(O)CN(CC(=O)O)CC(=O)O [NTA] | 10.7
O=P(O)(O)O [Phosphoric Acid] | 2.4
O=C(O)c1ccccc1C(=O)O [Phthalic Acid] | 2.2
O=C(O)CCC(=O)O [Succinic Acid] | 1.8
O=S(=O)(O)O [Sulfuric Acid] | 0.9
O=C(O)C(O)C(=O)O [Tatronic Acid] | 3.2
Cc1cc(C2(c3cc(C)c(O)c(CN(CC(=O)O)CC(=O)O)c3)OS(=O)(=O)c3ccccc32)cc(CN(CC(=O)O)CC(=O)O)c1O [Xylenol Orange] | 10.3
